The source of these data is publication PMC10545747, “Development of cyclopeptide inhibitors of cGAS targeting protein-DNA interaction and phase separation” (Nature Communications, 2023).

The structures appear in SMILES notation. In brackets after ≈: the same amount, converted by molar mass. Several values for one entry are separate records, joined by “and”; a condition that tells them apart may be missing. Identical values can stand only once. Square brackets hold non-standard residues; d marks the D form. Peptide text beside a SMILES is read from it.

One data set relates to L929 cells. Put plainly: HSV-1 cytopathogenic effect, crystal violet staining. The format is cell-based, mouse. Conditions: 10 μM. On the procedure:
L929 cells were seeded into 12-well plates at a density of 5 × 10^5 cells per well, and living cells were stained with crystal violet staining solution (Beyotime Biotechnology) according to the manufacturer’s instructions.
(Damage to the host cells serves as the signal in cytopathic effect assays.)

For a further data set, the system named is THP1 cells. Put plainly: ELISA of IFN-β and CXCL10 after HSV-1 infection. It is filed as cell-based, human. How it is done: THP1 cells were seeded into 96-well plates, and cell culture supernatants were collected and analyzed by ELISA kits for human IFNβ levels (R&D Systems, Cat# DY814-05) and human CXCL10 levels (R&D Systems, Cat# DY266-05) according to the manufacturer’s instructions. Mice serum was collected and analyzed by ELISA kits for mouse IFNβ levels (R&D Systems, Cat# DY8234-05) and mouse CXCL10 levels (R&D Systems, Cat# DY466-05) according to the manufacturer’s protocols.
(In general: ELISA stands for enzyme-linked immunosorbent assay.)

For the next data set, the system named is Hela cells. Put plainly: HSV-1 cytopathogenic effect, CCK-8 viability (rebuttal Fig. R1). The format is cell-based, human. To be noted: 10 μM.
The nature of another data set: physchem. How it is done: Supplementary Fig. 7. […] (a) THP1 cells were exposed to the indicated doses of XQ2 or XQ2B for 48h. The cell viability was measured by CCK8 assay. (b) The comparison of solubility of XQ2 and XQ2B. The maximum concentration of XQ2 or XQ2B dissolved in water was measured by a spectrophotometer at 280nm. […]
Data are representative of three independent experiments with similar results in (e), or three independent experiments in (a -d, f, g) . (Data are presented as mean ± SD, n = 3 independent samples in (a-d, f, g), ns, not significant, **p < 0.01, ***p < 0.001, ****p < 0.0001 using one-way ANOV A with Dunnett’s post hoc test). Source data are provided as a Source Data file.

Data set [1] concerns TREX1 knockdown THP1 cells. Put plainly: qPCR of IFNB1 and CXCL10 mRNA after TREX1 siRNA. It is filed as cell-based, human. How it is done:
(§1) The indicated cells were stimulated with either ISD (Sangon Biotech), HSV-1 (Provided by Dr. Zhengfan Jiang), HSV60mer (Sangon Biotech), SATE-cddA[70], 2’3’-cGAMP (Invivogen, Cat# tlrl-nacga23-1), ADU-S100 (MedChemExpress, Cat# HY-12885A) or Poly(I:C) (Invivogen, Cat# tlrl-pic) after XQ2 or XQ2B treatment. Total RNA was isolated from indicated cells that incubated with the drugs for indicated time or mice tissues by using NucleoZOL reagent (MACHEREY-NAGEL) according to the manufacturer’s instructions. The quantifications of mRNA levels were carried out by real-time PCR using a PerfectStart® Uni RT&qPCR Kit (TransGen Biotech) on the QuantStudio 5 qPCR machine (Applied Biosystems). Samples were carried out in triplicate and the target CT values were normalized to GAPDH CT values. Primers of qPCR used in this study can be found in Supplementary Table S2.
(§2) siRNA of TREX1 (siTREX1) was transfected into the indicated cells by Lipofectamine RNAiMAX (Invitrogen) according to the manufacturer’s instructions. Human siTREX1, mouse siTrex1 and negative control siRNAs were purchased from Sangon Biotech. The sequences of siRNAs oligonucleotides can be found in Supplementary Table S2.
(§3) Supplementary Fig. 9. XQ2B reduces interferon expression induced by Trex1 deficiency. […]
TREX1 knockdown THP1 cells were treated with DMSO or XQ2B (10 μM) for 24 h, and the mRNA levels of TREX1
(e), IFNB1 and CXCL10 (f) were measured by qPCR. (e) p < 0.0001, (f) p = 0.0001 (Ifnb1); p = 0.0157 (Cxcl10). Data
(§4) Source data are provided as a Source Data file.

Data set [2] has as its system Trex1 knockdown L929 cells. Put plainly: qPCR of Ifnb1 and Cxcl10 mRNA after Trex1 siRNA. The format is cell-based, mouse. On the procedure:
as §1, §2, §3
Trex1 knockdown L929 cells were treated with DMSO or XQ2B (20 μM) for 24 h, and the mRNA levels of Trex1 (c),
Ifnb1 and Cxcl10 (d) mRNA was measured by qPCR. (c) p < 0.0001, (d) p = 0.003 (Ifnb1); p = 0.0003 (Cxcl10). (e, f) […]
as §4
A general note: Real-time PCR tracks product formation cycle by cycle.

Method for Hela cells: We tested the effect of XQ2 on human cervical cancer
HSV-1 infection given that epithelial cells are generally weak responders of cGAS-
cells and THP1 cells were pretreated for 3 h with DMSO or XQ2 (10 μM), followed by
the indicated titer of HSV-1 infection. The cell v iability was measured by CCK-8 assay.

The solubility is how much of the substance goes into solution per volume. High values mean much dissolved substance, low ones little dissolved substance. Turning to `CC(C)C[C@@H]1NC(=O)[C@H](CCCNC(=N)N)NC(=O)[C@H](C(C)C)NC(=O)[C@@H]2CCCN2C(=O)[C@@H](Cc2ccccc2)NC(=O)[C@H](CC(C)C)NC(=O)[C@H](CCCNC(=N)N)NC(=O)[C@H](C(C)C)NC(=O)[C@H](C)NC(=O)[C@@H](Cc2ccccc2)NC1=O` [XQ2, Cyclo (LfAVRLfPVR)] (cyclo(L[dF]AVRL[dF]PVR)), the “HSV-1-induced cytopathogenic effect in L929 cells” value in the data set with L929 cells is on record as “promotion of XQ2 on HSV-1-induced cytopathogenic effect in mouse fibroblast L929 cells”. Besides, the “production of IFN-β and CXCL10 upon HSV-1 infection” value in the data set with THP1 cells (10 μM) was “significantly inhibited the production of IFN-β and CXCL10”. In addition, the “IFN-β protein, ELISA, Fig. 5a” value in the data set on THP1 cells (HSV-1 1×10^5 pfu 24 h, XQ2 10 μM) is 82.1785 and 88.212 and 94.6416. For the same molecule, the “CXCL10 protein, ELISA, Fig. 5b” value in the data set with THP1 cells (HSV-1 2×10^4 pfu 24 h, XQ2 10 μM) is 81.286 and 72.3045 and 81.612; in the data set on THP1 cells (HSV-1 5×10^4 pfu 24 h, XQ2 10 μM) it was 1196.79 and 1171.64 and 1198.54. Further, in the data set with Hela cells, the “HSV-1 cytopathogenic effect in Hela cells” value was “further enhanced the CPE”. Besides, the “solubility” value is “low solubility at higher concentrations” in “physchem” and 860 µg/mL (≈ 717 µM) in the data set “physchem” (Concentration (solubility, Fig. S7b)).

For `CC(C)C[C@@H]1NC(=O)[C@H](CCCNC(=N)N)NC(=O)[C@H](C(C)C)NC(=O)[C@@H]2CCCN2C(=O)[C@@H](Cc2ccccc2)NC(=O)[C@H](CC(C)C)NC(=O)[C@H](CCCNC(=N)N)NC(=O)[C@H]([C@@H](C)O)NC(=O)[C@H](C)NC(=O)[C@@H](Cc2ccccc2)NC1=O` [XQ2B] (cyclo([dF]ATRL[dF]PVRL)), the “Relative mRNA level Cxcl10” value is 2.255 and 1.956 and 2.174 in data set [1] (Fig. S9f, TREX1 knockdown (siTREX1 +) THP1 cells, XQ2B +, individual replicates, siTREX1 alone 2.64-3.32); 1.176 and 1.276 and 1.118 in data set [2] (Fig. S9d, Trex1 knockdown (siTrex1 +) L929 cells, XQ2B +, individual replicates, siTrex1 alone 5.56-7.04). In addition, the “Relative mRNA level Ifnb1” value in data set [1] (Fig. S9f, TREX1 knockdown (siTREX1 +) THP1 cells, XQ2B +, individual replicates, siTREX1 alone 15.6-16.4) was 8.9487 and 8.582 and 9.951; in data set [2] (Fig. S9d, Trex1 knockdown (siTrex1 +) L929 cells, XQ2B +, individual replicates, siTrex1 alone 23.9-27.1), 15.103 and 18.4861 and 15.5105. Further, the “expression of Ifnb1, Cxcl10 with Trex1-siRNA” value in data set [1] (THP1, 10 μM, 24 h) is “markedly inhibited the expression of these genes in mouse L929 and human THP1 cells with Trex1-siRNA”; in data set [2] (L929, 20 μM, 24 h), “markedly inhibited the expression of these genes in mouse L929 and human THP1 cells with Trex1-siRNA”. The “Concentration (solubility, Fig. S7b)” value in “physchem” (water) is 2890 µg/mL and 2940 µg/mL. Further, the “solubility” value was “higher solubility compared to XQ2” in “physchem” (water) and 2850 µg/mL (≈ 2370 µM) in the data set “physchem” (water, Concentration (solubility, Fig. S7b)).
